For one experiment, the target named is Prothrombin (Homo sapiens, UniProt P00734). Nature of the experiment: Inhibition of thrombin using S-2238 as substrate after 15 mins by spectrophotometric analysis.
Experiment [1] relates to Radical scavenging activity. Nature of the experiment: Antioxidant activity assessed as DPPH radical scavenging activity at 50 uM after 20 mins. In kind it is functional. In general terms: The DPPH test is a chemical assay of radical scavenging.
A further experiment deals with Glycine max. Nature of the experiment: (§1) Inhibition of soybean lipoxygenase by UV absorbance based assay.
Experiment [2] is described as follows: Antioxidant activity against AAPH-induced linoleic acid peroxidation by UV spectrophotometry analysis. In kind it is functional.
The test system of experiment [3] is Radical scavenging activity. Nature of the experiment: Antioxidant activity assessed as DPPH radical scavenging activity at 50 uM after 60 mins. In kind it is functional.
Experiment [4] deals with Radical scavenging activity. The experiment is described as follows: Antioxidant activity assessed as DPPH radical scavenging activity at 10 uM after 20 mins. In kind it is functional.
Experiment [5] has as its system Radical scavenging activity. The experiment is described as follows: Antioxidant activity assessed as DPPH radical scavenging activity at 10 uM after 60 mins. In kind it is functional.
A short description of experiment [6]: as §1. Also noted: species or system Glycine max.
A short description of experiment [7]: Antioxidant activity against AAPH-induced linoleic acid peroxidation at 100 uM by UV spectrophotometry analysis. In kind it is functional.

pIC50, pKi: −log10 of the molar value. Bounds are passed on as bounds.

A word on the pKi: it is −log10 of the Ki, conventionally taken in molar units. A high value points to a small Ki. As a reminder, the inhibition is the share of the control response that was lost under treatment. What is called pIC50 is −log10 of the IC50, conventionally taken in molar units.

For the compound `CCOC(=O)CN(Cc1ccc(F)cc1)c1ccc2c(c1)OC(C)(COc1ccc(C(=N)N)cc1)CN2C` (configuration not stated), the negative logarithm of the Ki (pKi) at Prothrombin was 6.51. The Activity in [1] was found to be 62%; in [3], 70%; in experiment [4], 88%; in experiment [5], 93%. The compound also displayed an inhibition in the experiment with Glycine max of over 0%. For the same compound, in [2], the negative-log IC50 (pIC50) was 4.02.
As for `CCOC(=O)CN(Cc1ccc(F)c(F)c1)c1ccc2c(c1)N(C)CC(C)(COc1ccc(C(=N)N)cc1)O2` (configuration not stated), the negative-log Ki (pKi) at Prothrombin is 6.18. For the same compound, the Activity in experiment [1] was 11%; in experiment [3], 16%; in [4], 8%; in experiment [5] it was 21%. This compound also came in with an inhibition with Glycine max of over 0%. The pIC50 in [2] was 4.17.
In turn, `CCOC(=O)C(=O)N(Cc1ccc(F)c(F)c1)c1ccc2c(c1)N(C)CC(C)(COc1ccc(C(=N)N)cc1)O2` (configuration not stated) gave a negative logarithm of the Ki (pKi) on Prothrombin of 6.43. The Activity turned out to be 23% in experiment [1], 28% in [3], 35% in experiment [4] and 46% in experiment [5]. In addition, the inhibition in the experiment with Glycine max was over 0%. In experiment [2], the pIC50 was 4.21.
Compound `CCOC(=O)CN(Cc1cc(F)cc(F)c1)c1ccc2c(c1)N(C)CC(C)(COc1ccc(C(=N)N)cc1)O2` (configuration not stated) showed a negative-log Ki (pKi) at Prothrombin of 6.02. Further, the Activity in experiment [1] came out at 8%; in [3], 10%; in experiment [4], 8%; in experiment [5], 18%. Also, the inhibition with Glycine max was 41.7%. This compound gave a pIC50 in experiment [2] of 4.44.
Regarding `CCOC(=O)CN(Cc1cc(F)cc(F)c1)c1ccc2c(c1)OC(C)(COc1ccc(C(=N)N)cc1)CN2C` (configuration not stated), the pKi on Prothrombin was 6.32. In addition, the Activity amounted to 54% in experiment [1], 68% in experiment [3], 75% in experiment [4] and 86% in experiment [5]. In the experiment on Glycine max, this compound gave an inhibition of over 0%. In addition, the negative logarithm of the IC50 (pIC50) in [2] was 4.16.
In turn, `CCOC(=O)CN(Cc1ccc(F)cc1)c1ccc2c(c1)N(C)CC(C)(COc1ccc(C(=N)N)cc1)O2` (configuration not stated) showed a pKi at Prothrombin of 6.16. Besides, the Activity in experiment [1] came out at 11%; in experiment [3], 14%; in experiment [4], 11%; in [5] it was 24%. In addition, the negative-log IC50 (pIC50) is 4.14 in experiment [6] and 4.11 in experiment [2].
`Cc1c(C)c2c(c(C)c1O)CCC(C)(C(=O)O)O2` (configuration not stated) came in with an inhibition in experiment [7] of 63%.
The compound `CCOC(=O)CN(Cc1cccc(F)c1)c1ccc2c(c1)N(C)CC(C)(COc1ccc(C(=N)N)cc1)O2` (configuration not stated) showed a pKi at Prothrombin of 6.05. Moreover, the Activity in experiment [1] was found to be 11%; in experiment [3], 14%; in experiment [4], 10%; in [5], 23%. The compound further came in with an inhibition in the experiment with Glycine max of 9.7%. The same compound showed a negative logarithm of the IC50 (pIC50) in experiment [2] of 4.23.
On to `CCOC(=O)CN(Cc1cccc(F)c1)c1ccc2c(c1)OC(C)(COc1ccc(C(=N)N)cc1)CN2C` (configuration not stated), for which the pKi on Prothrombin was 6.46. Moreover, the Activity in experiment [1] was found to be 48%; in experiment [3], 63%; in [4], 71%; in [5] it was 85%. Also, the inhibition in the experiment on Glycine max was over 0%. For the same compound, in experiment [2], the negative logarithm of the IC50 (pIC50) is 4.09.
As to `CCOC(=O)C(=O)N(Cc1ccc(F)cc1)c1ccc2c(c1)N(C)CC(C)(COc1ccc(C(=N)N)cc1)O2` (configuration not stated), the Activity worked out at 10% in [1], 12% in experiment [3], 10% in [4] and 21% in experiment [5]. Also, the inhibition in the experiment with Glycine max was over 0%. This compound also had a pIC50 in experiment [2] of 4.29.
Take `CC(Cc1ccc(O)c(O)c1)C(C)Cc1ccc(O)c(O)c1` (configuration not stated): the Activity in [1] amounted to 68%; in [3], 81%; in [4], 83%; in experiment [5], 83%.
On Prothrombin, `CCOC(=O)CN(Cc1ccc(F)c(F)c1)c1ccc2c(c1)OC(C)(COc1ccc(C(=N)N)cc1)CN2C` (configuration not stated) showed a pKi of 6.37. In addition, the Activity in [1] is 70%; in experiment [3], 81%; in [4] it was 84%; in experiment [5], 90%. In the experiment with Glycine max, this compound registered an inhibition of over 0%. In experiment [2], the negative-log IC50 (pIC50) is 4.15.
Take `CCOC(=O)C(=O)N(Cc1cc(F)cc(F)c1)c1ccc2c(c1)N(C)CC(C)(COc1ccc(C(=N)N)cc1)O2` (configuration not stated): the Activity worked out at 23% in experiment [1], 28% in experiment [3], 25% in experiment [4] and 36% in experiment [5]. In addition, the pIC50 in [6] is 4.00; in experiment [2], 4.16.
As for `O=C(O)/C=C/c1ccc(O)c(O)c1` [CAFFEIC ACID], the pIC50 in experiment [6] was 3.22.
Regarding `CCOC(=O)C(=O)N(Cc1cccc(F)c1)c1ccc2c(c1)N(C)CC(C)(COc1ccc(C(=N)N)cc1)O2` (configuration not stated), the Activity in experiment [1] was 11%; in experiment [3] it was 14%; in [4], 12%; in experiment [5], 24%. In the experiment with Glycine max, this compound had an inhibition of over 0%. This compound also gave a pIC50 in [2] of 4.05.

The values are drawn from ChEMBL document CHEMBL1806438, “Thrombin inhibitors with lipid peroxidation and lipoxygenase inhibitory activities” (Bioorg Med Chem Lett, 2011).
